Experimental data: PMC5701947, “β1-Adrenergic Receptor Contains Multiple IA^k and IE^k Binding Epitopes That Induce T Cell Responses with Varying Degrees of Autoimmune Myocarditis in A/J Mice” (Frontiers in Immunology, 2017)
Entries after “also recorded” stand apart in the source; their conditions may differ. Residues, ends and D or L forms follow the SMILES beside them. No end group written: not given here.

Legend:
A/J mice (hearts) = test: Induction of myocarditis by active immunization with peptides (histology); type: in vivo; conditions: for Myocarditis incidence / Myocarditis incidence (animals with disease/total) / Inflammatory foci: individual non-acetylated peptide, 100 µg per animal; for Myocarditis incidence / Myocarditis incidence (animals with disease/total): CFA/PT, days 0 and 7, day 21; for Inflammatory foci: mean ± SEM of myocarditic animals
[1] = system: T cells (lymph node cells/splenocytes from immunized animals); test: T cell proliferation assay ([3H]-thymidine); type: cell-based, A/J mice; conditions: for T cell responses: fold vs medium control; for T cell responses (in words): proliferation, 0–100 µg/ml, 2 days + 16 h [3H]-thymidine, cpm
Procedure: At termination, lymph nodes (maxillary, mandibular, axillary, inguinal, and popliteal) and spleens were harvested from immunized animals to prepare single cell suspensions. Similarly, splenocytes were prepared from naive animals. After lysing the erythrocytes and washing, cell pellets were suspended in RPMI medium containing 10% fetal bovine serum, 1 mM sodium pyruvate, 4 mM L-glutamine, 1 × each of non-essential amino acids and vitamin mixture, and 100 U/ml penicillin–streptomycin (Lonza, Walkersville, MD, USA; hereafter called growth medium). In some experiments, CD4 T cells and CD8 T cells were enriched to a purity of ~95% by negative selection based on magnetic separation using IMAG (BD Biosciences, San Jose, CA, USA) ([31]). To stimulate CD4 and CD8 T cells, syngeneic naive irradiated splenocytes loaded with peptides were used as antigen-presenting cells at a ratio of 1:1. Cells were stimulated at a density of ~5 × 10^6 cells/ml in triplicates with or without the immunizing peptides (0–100 µg/ml) in growth medium. RNase 43–56 or HEL 46–61 were used as irrelevant controls. After 2 days, cells were pulsed with tritiated ^3[H]-thymidine (1 μCi/well; MP Biomedicals, Santa Ana, CA, USA), and 16 h later, proliferative responses were measured as counts per minute (cpm) using a Wallac liquid scintillation counter (Perkin Elmer, Waltham, MA, USA) ([26], [28], [30]).

IA^k = biological target: T1, IA^k (Mus musculus, UniProt P01910+P06343); test: MHC class II-binding assay, IA^k; design: species or system A/J mice; conditions: competition with biotinylated HEL 46–61 (1 µM); empty IA^k monomers 0.35 µg; competitor 0.00001–100 µM; pH 7.0, overnight, RT; DELFIA europium fluorescence 340/615 nm; mean ± SEM, three experiments with two replicates each
T1 construct: soluble IA^k and IE^k monomers were expressed; class II-associated invariant-chain peptide (CLIP) 88–102 (VSQMRMATPLLMRPM) with thrombin cleavage site (cleaved yes); made in house; host or cells: baculovirus expression (sf9 cells are named only for the IA^k dextramer constructs)
T1 sequence (P01910 24-218 limits assumed): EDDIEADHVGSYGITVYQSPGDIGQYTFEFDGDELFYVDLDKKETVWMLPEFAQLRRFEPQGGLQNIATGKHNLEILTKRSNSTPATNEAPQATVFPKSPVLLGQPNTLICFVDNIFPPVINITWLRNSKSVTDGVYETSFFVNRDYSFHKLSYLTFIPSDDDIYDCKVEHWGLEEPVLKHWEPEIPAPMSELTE
T1 sequence (P06343 28-224 limits assumed): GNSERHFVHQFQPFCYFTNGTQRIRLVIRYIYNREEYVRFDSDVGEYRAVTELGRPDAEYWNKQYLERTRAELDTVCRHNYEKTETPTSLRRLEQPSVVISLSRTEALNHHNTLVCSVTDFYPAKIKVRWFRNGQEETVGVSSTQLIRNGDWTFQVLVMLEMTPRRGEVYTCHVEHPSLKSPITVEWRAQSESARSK
Procedure: A/J mice express two MHC class II alleles, IA^k and IE^k ([33], [34]), and to determine the affinities of β1AR peptides, soluble IA^k and IE^k monomers were expressed ([34], [35]). In brief, the β-chain in each of IA^k and IE^k constructs contain sequence for class II-associated invariant-chain peptide 88–102 (VSQMRMATPLLMRPM) linked with thrombin cleavage site ([34], [35]). After expressing in the baculovirus, soluble IA^k and IE^k monomers were treated with thrombin (20 U/mg; Novagen, Madison, WI, USA) to release class II-associated invariant-chain peptide leading us to obtain empty IA^k and IE^k molecules. Reaction mixtures were prepared to include empty IA^k or IE^k monomers (0.35 µg), competitor peptides (β1ARAc 171–190, β1ARAc 181–200, β1ARAc 201–220, and β1ARAc 211–230) (0.00001–100 µM), and constant amounts of the biotinylated reference peptides HEL 46–61 (for IA^k) or MCC 82–103 (for IE^k) (1 µM) in a buffer containing 50 mM sodium phosphate pH 7.0, 100 mM sodium chloride, 1 mM EDTA, and 1 × protease inhibitor (Sigma-Aldrich, St. Louis, MO, USA) ([36]–[38]). After incubating overnight at RT, the mixtures were transferred to 96-well white fluorescence plates coated with anti-IA^k (clone 10-2.16, BioXcell, West Lebanon, NH, USA), and anti-IE^k (clone M5/114, BioXcell) Abs (10 µg/ml) in 0.2 M sodium phosphate buffer, pH 6.8, blocked with 2% bovine casein; and the plates were incubated on a rocker at RT for 1 h. Finally, after adding 100 µl of europium-labeled streptavidin (0.1 µg/ml) and dissociation-enhanced lanthanide fluoroimmunoassay (DELFIA) enhancement solution (Perkin Elmer) sequentially, fluorescence intensities were measured at excitation/emission wavelengths of 340/615 nm using a Victor Multilabel Plate Reader (Perkin Elmer). The IC50 values were determined based on the concentrations of competitor peptides needed to prevent 50% binding of the reference peptides as we have described previously ([26], [28], [30]).

[2] = system: non-cardiac tissues (brain, lung, liver, kidney); conditions: mouse, in vivo
rabbits, rats, and mice = conditions: cited from earlier work
Description: While, an assumption made in these studies that a single epitope of β1AR can act as an immunogen in various species despite the major histocompatibility complex (MHC) alleles to be different was found valid, identification of other potential immunodominant epitopes, if any, was not explored. Lik ... || In this report, we describe identification of T cell epitopes of β1AR in A/J mice that are highly susceptible to lymphocytic myocarditis induced by various cardiac antigens namely, Myhc ([28]), cardiac troponin I ([47]), ANT ([26]), and BCKD kinase ([30]). Importance of β1AR in the cardiac disease has long been investigated in that patients with myocarditis/DCM, in particular, IDCM show β1AR-reactive antibodies.

[3] = 10 μg/ml, animals immunized with pool IV
[4] = 100 μg/ml, animals immunized with pool IV
[5] = 10 μg/ml, animals immunized with pool VIII
[6] = 100 μg/ml, animals immunized with pool VIII

In the case of “NDPKCCDFVTNRAYAIASSV [β1AR 211-230, 20-mer of mouse β1AR peptide library]”, the “Disease severity (in words)” value (A/J mice (hearts); individual immunization, non-acetylated peptides) is reported as “mild disease”, the Myocarditis incidence (A/J mice (hearts)) is reported as 40% and the “Myocarditis incidence (animals with disease/total)” value (A/J mice (hearts)) is reported as 2/5. For the same compound, the Inflammatory foci (A/J mice (hearts)) was 2.0 ± 1.0, the T cell responses [1, 3] was 3.15 fold and the T cell responses [1, 4] was 3.27 fold.

In the case of `CC[C@H](C)[C@H](NC(=O)[C@H](C)NC(=O)[C@H](Cc1ccc(O)cc1)NC(=O)[C@H](C)NC(=O)[C@H](CCCNC(=N)N)NC(=O)[C@H](CC(N)=O)NC(=O)[C@@H](NC(=O)[C@@H](NC(=O)[C@H](Cc1ccccc1)NC(=O)[C@H](CC(=O)O)NC(=O)[C@H](CS)NC(=O)[C@H](CS)NC(=O)[C@H](CCCCN)NC(=O)[C@@H]1CCCN1C(=O)[C@H](CC(=O)O)NC(=O)[C@H](CC(N)=O)NC(C)=O)C(C)C)[C@@H](C)O)C(=O)N[C@@H](C)C(=O)N[C@@H](CO)C(=O)N[C@@H](CO)C(=O)N[C@H](C(=O)O)C(C)C` [β1ARAc 211–230] (Ac-NDPKCCDFVTNRAYAIASSV-OH), the IC50 (IA^k) is reported as 18.6 ± 1.23 µM, the “Brain, incidence (animals affected/total)” value [2] is reported as 0/5 and the “Brain, incidence of inflammation” value [2] is reported as 0%. The “Brain, inflammatory foci” value [2] was 0, the “Kidney, incidence (animals affected/total)” value [2] was 0/6 and the “Kidney, incidence of inflammation” value [2] was 0%. For the same compound, the “Kidney, inflammatory foci” value [2] was 0, the “Liver, incidence (animals affected/total)” value [2] was 6/6 and the “Liver, incidence of inflammation” value [2] was 100%. For the same compound, the “Liver, inflammatory foci” value [2] was 20.33 ± 4.83, the “Lung, incidence (animals affected/total)” value [2] was 5/6 and the “Lung, incidence of inflammation” value [2] was 83%. The “Lung, inflammatory foci” value [2] was 2.50 ± 1.34.

In the case of “β1AR 381-400: 20-mer of mouse β1AR peptide library (CCARRAACRRRAAHGDRPRA; UniProt P34971 381-400, looked up, fragment)”, the Myocarditis incidence (A/J mice (hearts)) is reported as 0%, the “Myocarditis incidence (animals with disease/total)” value (A/J mice (hearts)) is reported as 0/5 and the Inflammatory foci (A/J mice (hearts)) is reported as 0. The T cell responses [1, 5] was 1.10 fold, the T cell responses [1, 6] was 1.45 fold and the “T cell responses (in words)” value [1] was “did not show T cell responses”.

For “HWWRAESDEARRCYNDPKCCDFVTNR [β1AR 197–222]”, the “Cardiac abnormalities in Balb/c mice (in words)” value (rabbits, rats, and mice; Balb/c mice) is given as “cardiac abnormalities could be detected in Balb/c mice only at 25 weeks but not at 14 weeks postimmunization”, the “Antibody induction in rodent species (in words)” value (rabbits, rats, and mice) is given as “shown to induce antibodies in various rodent species” and the “Cardiomyopathy on prolonged immunization (in words)” value (rabbits, rats, and mice; monthly/biweekly immunizations for 6–18 months) is given as “developed cardiac dysfunctions suggestive of DCM, with minimal or no heart infiltrates; also recorded: can develop features of cardiomyopathy during the course of ~1 year with little or no myocarditis”. The “Cardiomyopathic changes in rats (in words)” value (rabbits, rats, and mice; rats, prolonged immunization) was “early cardiomyopathic changes at 1 year, but with no necrosis or fibrosis including changes in heart to body weight ratios”.

With “Ac-TRARARALVCTVWAISALVS [β1ARAc 171–190]” the IC50 (IA^k) was 26.1 ± 12.4 µM, the “Brain, incidence (animals affected/total)” value [2] was 0/6 and the “Brain, incidence of inflammation” value [2] was 0%. For the same compound, the “Brain, inflammatory foci” value [2] was 0, the “Kidney, incidence (animals affected/total)” value [2] was 0/6 and the “Kidney, incidence of inflammation” value [2] was 0%. For the same compound, the “Kidney, inflammatory foci” value [2] was 0, the “Liver, incidence (animals affected/total)” value [2] was 6/6 and the “Liver, incidence of inflammation” value [2] was 100%. The “Liver, inflammatory foci” value [2] was 29.17 ± 6.83, the “Lung, incidence (animals affected/total)” value [2] was 6/6 and the “Lung, incidence of inflammation” value [2] was 100%. For the same compound, the “Lung, inflammatory foci” value [2] was 4.33 ± 0 .21.

With “Ac-TVWAISALVSFLPILMHWWR [β1ARAc 181–200]” the IC50 (IA^k) was 97.1 ± 2.07 µM, the “Brain, incidence (animals affected/total)” value [2] was 0/6 and the “Brain, incidence of inflammation” value [2] was 0%. The “Brain, inflammatory foci” value [2] was 0, the “Kidney, incidence (animals affected/total)” value [2] was 0/6 and the “Kidney, incidence of inflammation” value [2] was 0%. For the same compound, the “Kidney, inflammatory foci” value [2] was 0, the “Liver, incidence (animals affected/total)” value [2] was 6/6 and the “Liver, incidence of inflammation” value [2] was 100%. For the same compound, the “Liver, inflammatory foci” value [2] was 44.50 ± 11.66, the “Lung, incidence (animals affected/total)” value [2] was 6/6 and the “Lung, incidence of inflammation” value [2] was 100%. For the same compound, the “Lung, inflammatory foci” value [2] was 3.17 ± 0.60.

For “β1AR 391-410: 20-mer of mouse β1AR peptide library (RAAHGDRPRASGCLARAGPP; UniProt P34971 391-410, looked up, fragment)”, the Myocarditis incidence (A/J mice (hearts)) was 0%, the “Myocarditis incidence (animals with disease/total)” value (A/J mice (hearts)) was 0/5 and the Inflammatory foci (A/J mice (hearts)) was 0. The T cell responses [1, 5] was 1.03 fold, the T cell responses [1, 6] was 1.18 fold and the “T cell responses (in words)” value [1] was “did not show T cell responses”.

With “β1AR 191-210: 20-mer of mouse β1AR peptide library (FLPILMHWWRAESDEARRCY; UniProt P34971 191-210, looked up, fragment)” the Myocarditis incidence (A/J mice (hearts)) was 0%, the “Myocarditis incidence (animals with disease/total)” value (A/J mice (hearts)) was 0/5 and the Inflammatory foci (A/J mice (hearts)) was 0. It also gave a T cell responses [1, 3] of 1.26 fold and a T cell responses [1, 4] of 1.63 fold.

In the case of “β1AR 201-220: 20-mer of mouse β1AR peptide library (AESDEARRCYNDPKCCDFVT; UniProt P34971 201-220, looked up, fragment)”, the Myocarditis incidence (A/J mice (hearts)) is reported as 0%, the “Myocarditis incidence (animals with disease/total)” value (A/J mice (hearts)) is reported as 0/5 and the Inflammatory foci (A/J mice (hearts)) is reported as 0. For the same compound, the T cell responses [1, 3] was 1.08 fold and the T cell responses [1, 4] was 1.37 fold.

For “β1AR 161-180: 20-mer of mouse β1AR peptide library (TSPFRYQSLLTRARARALVC; UniProt P34971 161-180, looked up, fragment)”, the T cell responses ([1]; 10 μg/ml, animals immunized with pool III) was 1.03 fold and the T cell responses ([1]; 100 μg/ml, animals immunized with pool III) was 1.29 fold.

For “β1AR 81-100: 20-mer of mouse β1AR peptide library (VAIAKTPRLQTLTNLFIMSL; UniProt P34971 81-100, looked up, fragment)”, the T cell responses ([1]; 10 μg/ml, animals immunized with pool II) was 1.65 fold and the T cell responses ([1]; 100 μg/ml, animals immunized with pool II) was 2.36 fold.

Compound “β1AR 341-360: 20-mer of mouse β1AR peptide library (DLVPDRLFVFFNWLGYANSA; UniProt P34971 341-360, looked up, fragment)” has a T cell responses ([1]; 10 μg/ml, animals immunized with pool VII) of 1.02 fold and a T cell responses ([1]; 100 μg/ml, animals immunized with pool VII) of 1.47 fold.
